Measurements as given in patent publication US7897619B2, “Heterocyclic modulators of PKB” (Amgen Inc., priority 2007, dated 2011).

Biological target: PKBα (Homo sapiens, UniProt P31749)
Experiment: PKB kinase assay (P33-labeled ATP, synthetic peptide substrate, filter plate)
Assay type: biochemical
Details: PKBα enzyme (full length or kinase domain with pleckstrin domain deleted)
Description: The kinase assay for evaluating PKB activity comprises active PKB enzymes, a PKB specific substrate, and P^33-labeled ATP. Two forms of PKBα enzymes were used, the full length PKBα and a kinase domain of PKBα with pleckstrin domain (amino acids 1-117) deleted. Both PKB enzymes were obtained from Upstate cell signaling solutions (Cat.# 14-276 and 14-341). The PKB substrate used is a synthetic peptide (ARKRERTYSFGHHA (SEQ ID NO: 1)) as described in Obata et al., J. Biol. Chem. 275 (46), 36108-36115 (2000). The phosphorylated substrate was captured by a phosphocellulose membrane filter plate (MILLIPORE) and measured by a Wallac Microbeta liquid scintillation counter (Perkin Elmer). Table 1 provides the IC50 values obtained for each of the examples with respect to PKBα.

PKBα, sequence (P31749 118-480 limits assumed): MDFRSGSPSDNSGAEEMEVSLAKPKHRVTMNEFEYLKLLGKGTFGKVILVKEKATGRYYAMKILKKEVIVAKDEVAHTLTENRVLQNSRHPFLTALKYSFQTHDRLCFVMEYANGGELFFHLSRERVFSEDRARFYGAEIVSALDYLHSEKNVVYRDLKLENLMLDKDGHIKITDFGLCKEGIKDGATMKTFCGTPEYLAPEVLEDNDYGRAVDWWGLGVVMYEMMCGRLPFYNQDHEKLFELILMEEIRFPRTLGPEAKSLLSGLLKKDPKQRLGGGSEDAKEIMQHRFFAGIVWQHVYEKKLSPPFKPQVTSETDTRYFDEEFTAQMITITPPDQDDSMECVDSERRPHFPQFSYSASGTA

| SMILES | IC50 |
| --- | --- |
| N[C@H](CCn1cc(-c2ccc3cnccc3c2)cn1)Cc1ccc(F)c(F)c1 [Example 61, (2S)-1-(3,4-Difluorophenyl)-4-(4-(isoquinolin-6-yl)-1H-pyrazol-1-yl)butan-2-amine] | 50 to 1000 nM |
| N[C@H](CCn1cc(-c2ccc3cnccc3c2)cn1)Cc1ccc(F)cc1 [Example 62, (2S)-1-(4-Fluorophenyl)-4-(4-(isoquinolin-6-yl)-1H-pyrazol-1-yl)butan-2-amine] | 50 to 1000 nM |
| N[C@@H](Cc1ccc(C(F)(F)F)cc1)Cn1cc(-c2ccc3cnccc3c2)cn1 [Example 65, (2S)-1-(4-(Isoquinolin-6-yl)-1H-pyrazol-1-yl)-3-(4-(trifluoromethyl)phenyl)-propan-2-amine] | 50 to 1000 nM |
| N[C@H](CCc1nnc(-c2ccc3cnccc3c2)o1)Cc1ccc(C(F)(F)F)cc1 [Example 66, (2R)-4-(5-(Isoquinolin-6-yl)-1,3,4-oxadiazol-2-yl)-1-(4-(trifluoromethyl)phenyl)butan-2-amine] | 50 to 1000 nM |

Second part, the molecule after the results:

| IC50 | SMILES |
| --- | --- |
| 50 to 1000 nM | N[C@H](CCn1cc(-c2ccc3cnccc3c2)cn1)Cc1ccc(Cl)cc1Cl [Example 63, (2S)-1-(2,4-Dichlorophenyl)-4-(4-(isoquinolin-6-yl)-1H-pyrazol-1-yl)butan-2-amine] |
| 50 to 1000 nM | N[C@H](CCn1cc(-c2ccc3cnccc3c2)cn1)Cc1ccccc1 [Example 64, (2S)-4-(4-(Isoquinolin-6-yl)-1H-pyrazol-1-yl)-1-phenylbutan-2-amine] |
| 50 to 1000 nM | N[C@H](CCc1cn(-c2ccc3[nH]ncc3c2)nn1)Cc1ccc(C(F)(F)F)nc1 [Example 67, (2R)-4-(1-(1H-Indazol-5-yl)-1H-1,2,3-triazol-4-yl)-1-(6-(trifluoromethyl)pyridin-3-yl)butan-2-amine bistrifluoroacetate] |
